In patent US20230404985A1, “METHODS OF TREATING TUMORS AND CANCERS HAVING DYSREGULATED WNT SIGNALING PATHWAYS” (ICAHN SCHOOL OF MEDICINE AT MOUNT SINAI, priority 2020, published 2023):

Assays:
[1] = test system: MYC-CTNNB1 tumor organoids; assay: Drug toxicity (viability) assay in murine HCC tumor organoids; type: cell-based, mouse; settings: screen in four tumor organoid models; 5 μM, viability after 3 days
Description: Liver tumors were minced and digested in sterile digestion media (PBS, 0.125 mg/mL collagenase from Clostridium histolyticum, 0.125 mg/mL dispase II, and 0.1 mg/mL DNaseI) for two hours at 37° C. Tumor dissociate was strained through a 70 μm strainer and washed with basal media (Advanced DMEM/F-12, 1% glutamine, 1% penicillin/streptomycin, 10 mM HEPES). Cells were counted, washed, resuspended at 50,000 cells per 50 μL Matrigel (Corning), and plated in 24 well plates. […]
For assays in organoid lines, 96 well plates were first coated with a 50:50 solution of basal media:Matrigel (35 μL/well), which polymerized for 15 minutes at 37° C. […] Viability was measured three days post drug administration with either luminescence from CellTiter-Glo or absorbance at 560 and 590 nm from resazurin. Viability data was analyzed by normalizing individual drug-treated well values to DMSO-treated wells. […]

[2] = test system: AKS: APCKO::KRASG12D::SMAD4KO tumoroids; assay: TiterGlo viability of CRC tumoroids (AKS); type: cell-based, mouse
Description: FIGS. 13A-13E show results pertaining to colorectal cancer. […] Data are column/gene normalized on a 0-100 scale with 0 being the lowest expression level and 100 the highest. FIG. 13D show full dose-response analysis of WNTinib's effects on the indicated organoid and tumoroid lines; viability was quantified using the TiterGlo assay after 72 hours. WT intestinal organoids are used as a control. […] Images of the intestine are shown as an example.
First, an APC deletion (A) was introduced, then a KRAS^G12D overexpression (AK) in combination with a SMAD4^KO was introduced to affect the TGFbeta pathway (AKS). Last, P53 was deleted to mimic the latest stages of metastatic disease progression (AKSP).

Advanced-stage HCC = settings: patients; cited from earlier work

SMILES | activity in tumor organoid screen [1] | viability of AKS CRC line ([2]; 72 hours post treatment) | organoid morphology of AKS organoids ([2]; WNTinib 3 μM, 72 hrs) | median survival (Advanced-stage HCC)
CNC(=O)c1cc(Oc2ccc(NC(=O)Nc3ccc(C(F)(F)C(F)(F)F)cc3)c(F)c2)ccn1 [WNTinib, 4-(3-fluoro-4-(3-(4-(perfluoroethyl)phenyl)ureido)phenoxy)-N-methylpicolinamide] | potent and selective activity | reduce the viability | induce a reversal of organoid morphology | –
CNC(=O)c1cc(Oc2ccc(NC(=O)Nc3ccc(Cl)c(C(F)(F)F)c3)cc2)ccn1 [sorafenib, reference compound] | – | – | – | 11-14 months
